Target: T1, vanilloid receptor 1 (VR1/TRPV1 receptor) (Homo sapiens, UniProt Q8NER1)
T1 construct: expressed in transfected cells; host or cells: CHO K1
Assay: Functional testing on the vanilloid receptor 1 (VR1/TRPV1): FLIPR Ca2+ influx assay, displacement of capsaicin
Type: cell-based, human being
Details: for Ki: capsaicin (Cap) as stimulus, Ki from IC50 by Cheng-Prusoff, read-out: (f) Ki (human being) [nM] Cap; for inhibition at 5 µM: 5 μM compound, capsaicin (Cap), human being, read-out: inhibition (as a percentage) at the concentration after @, Cap
Outline: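 Fluo-4 FLIPR Ca2+ influx in CHO K1 cells transfected with human VR1, measuring displacement of 100 nM capsaicin; rat VR1 agonism/antagonism also assessed in rat dorsal root ganglion neurons cultured 2–3 days at 37° C with 25 ng/mL NGF, then loaded with 2 μM Fluo-4.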

T1 sequence (Q8NER1 whole entry): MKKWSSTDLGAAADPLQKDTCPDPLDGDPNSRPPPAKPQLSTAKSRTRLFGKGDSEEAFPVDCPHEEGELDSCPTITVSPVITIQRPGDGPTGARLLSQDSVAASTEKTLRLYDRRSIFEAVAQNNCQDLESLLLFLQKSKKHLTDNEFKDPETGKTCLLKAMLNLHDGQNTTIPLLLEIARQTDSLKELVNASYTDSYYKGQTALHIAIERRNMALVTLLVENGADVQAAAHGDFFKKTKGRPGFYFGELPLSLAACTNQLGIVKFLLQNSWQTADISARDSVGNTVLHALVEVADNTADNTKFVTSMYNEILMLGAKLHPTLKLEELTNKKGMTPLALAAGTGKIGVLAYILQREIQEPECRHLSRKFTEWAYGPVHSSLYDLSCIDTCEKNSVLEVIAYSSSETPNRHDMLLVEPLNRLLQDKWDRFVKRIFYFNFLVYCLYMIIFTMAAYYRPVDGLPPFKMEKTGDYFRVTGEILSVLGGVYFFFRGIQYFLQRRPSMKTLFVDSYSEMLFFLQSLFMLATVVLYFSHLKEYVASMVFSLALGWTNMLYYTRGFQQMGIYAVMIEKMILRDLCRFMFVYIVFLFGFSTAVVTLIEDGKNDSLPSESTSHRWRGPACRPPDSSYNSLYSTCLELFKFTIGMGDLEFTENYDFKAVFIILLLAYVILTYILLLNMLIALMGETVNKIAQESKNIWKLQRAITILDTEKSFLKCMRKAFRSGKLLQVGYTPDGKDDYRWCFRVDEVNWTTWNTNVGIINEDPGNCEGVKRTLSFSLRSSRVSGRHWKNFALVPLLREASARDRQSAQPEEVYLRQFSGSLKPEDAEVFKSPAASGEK

Ki [nM] | inhibition at 5 µM [%] | SMILES
4 |  | CC(C(=O)NCc1cc(C(F)(F)F)nn1-c1cccc(Cl)c1)c1ccc(NC(=O)c2ccc(F)cc2)nc1 (stereo not shown) [Example 94, N-(5-(1-((1-(3-chlorophenyl)-3-(trifluoromethyl)-1H-pyrazol-5-yl)methylamino)-1-oxopropan-2-yl)pyridin-2-yl)-4-fluorobenzamide]
2 |  | CC(C(=O)NCc1cc(C(C)(C)C)nn1-c1cccc(Cl)c1)c1ccc(NC(=O)c2ccc(Cl)cc2)nc1 (stereo not shown) [Example 95, N-(5-(1-((3-tert-butyl-1-(3-chlorophenyl)-1H-pyrazol-5-yl)methylamino)-1-oxopropan-2-yl)pyridin-2-yl)-4-chlorobenzamide]
3 |  | CC(C(=O)NCc1cc(C(F)(F)F)nn1-c1cccc(Cl)c1)c1ccc(NC(=O)c2ccc(Cl)cc2)nc1 (stereo not shown) [Example 96, 4-chloro-N-(5-(1-((1-(3-chlorophenyl)-3-(trifluoromethyl)-1H-pyrazol-5-yl)methylamino)-1-oxopropan-2-yl)pyridin-2-yl)benzamide]
8 |  | CC(C(=O)NCc1cc(C(C)(C)C)nn1-c1cccc(Cl)c1)c1ccc(NS(C)(=O)=O)nc1 (stereo not shown) [Example 98, N-((3-tert-butyl-1-(3-chlorophenyl)-1H-pyrazol-5-yl)methyl)-2-(6-(methylsulfonamido)pyridin-3-yl)propanamide]
11 |  | CC(C(=O)NCc1cc(C(F)(F)F)nn1-c1cccc(Cl)c1)c1ccc(NS(C)(=O)=O)nc1 (stereo not shown) [Example 99, N-((1-(3-chlorophenyl)-3-(trifluoromethyl)-1H-pyrazol-5-yl)methyl)-2-(6-(methylsulfonamido)pyridin-3-yl)propanamide]
37 |  | CC(C(=O)NCc1cc(C(F)(F)F)nn1-c1cccc(F)c1)c1ccc(NS(C)(=O)=O)nc1 (stereo not shown) [Example 100, N-((1-(3-fluorophenyl)-3-(trifluoromethyl)-1H-pyrazol-5-yl)methyl)-2-(6-(methylsulfonamido)pyridin-3-yl)propanamide]
 | 30 | CS(=O)(=O)Nc1ccc(NC(=O)NCc2cc(C(F)(F)F)nn2-c2cccc(Cl)c2)cn1 [Example 101, N-(5-(3-((1-(3-chlorophenyl)-3-(trifluoromethyl)-1H-pyrazol-5-yl)methyl)ureido)pyridin-2-yl)methanesulfonamide]
8 |  | CC(C(=O)NCc1cc(C(C)(C)C)nn1-c1cccc(Cl)c1)c1cnc(NS(C)(=O)=O)c(F)c1 (stereo not shown) [Example 102, N-((3-tert-butyl-1-(3-chlorophenyl)-1H-pyrazol-5-yl)methyl)-2-(5-fluoro-6-(methylsulfonamido)pyridin-3-yl)propanamide]
12 |  | CC(C(=O)NCc1cc(C(F)(F)F)nn1-c1cccc(Cl)c1)c1cnc(NS(C)(=O)=O)c(F)c1 (stereo not shown) [Example 103, N-((1-(3-chlorophenyl)-3-(trifluoromethyl)-1H-pyrazol-5-yl)methyl)-2-(5-fluoro-6-(methylsulfonamido)pyridin-3-yl)propanamide]
3 |  | COc1cc(C(C)C(=O)NCc2cc(C(F)(F)F)nn2-c2cccc(Cl)c2)cnc1NS(C)(=O)=O (stereo not shown) [Example 104, N-((1-(3-chlorophenyl)-3-(trifluoromethyl)-1H-pyrazol-5-yl)methyl)-2-(5-methoxy-6-(methylsulfonamido)pyridin-3-yl)propanamide]
2 |  | COc1cc(C(C)C(=O)NCc2cc(C(C)(C)C)nn2-c2cccc(Cl)c2)cnc1NS(C)(=O)=O (stereo not shown) [Example 105, N-((3-tert-butyl-1-(3-chlorophenyl)-1H-pyrazol-5-yl)methyl)-2-(5-methoxy-6-(methylsulfonamido)pyridin-3-yl)propanamide]
25 |  | CN(C)c1ncc(NC(=O)NCc2cc(C(F)(F)F)nn2-c2cccc(Cl)c2)cc1C(F)(F)F [Example 106, 1-((1-(3-chlorophenyl)-3-(trifluoromethyl)-1H-pyrazol-5-yl)methyl)-3-(6-(dimethylamino)-5-(trifluoromethyl)pyridin-3-yl)urea]
5 |  | CN(C)c1ncc(NC(=O)NCc2cc(C(C)(C)C)nn2-c2cccc(Cl)c2)cc1C(F)(F)F [Example 107, 1-((3-tert-butyl-1-(3-chlorophenyl)-1H-pyrazol-5-yl)methyl)-3-(6-(dimethylamino)-5-(trifluoromethyl)pyridin-3-yl)urea]
43 |  | CC(C)(C)c1cc(CNC(=O)Nc2ccc(N3CCC3)nc2)n(-c2cccc(Cl)c2)n1 [Example 108, 1-(6-(azetidin-1-yl)pyridin-3-yl)-3-((3-tert-butyl-1-(3-chlorophenyl)-1H-pyrazol-5-yl)methyl)urea]
46 |  | O=C(NCc1cc(C(F)(F)F)nn1-c1cccc(Cl)c1)Nc1ccc(N2CCC2)nc1 [Example 109, 1-(6-(azetidin-1-yl)pyridin-3-yl)-3-((1-(3-chlorophenyl)-3-(trifluoromethyl)-1H-pyrazol-5-yl)methyl)urea]
37 |  | CC(C)(C)c1cc(CNC(=O)Nc2ccc(N3CC(O)C3)nc2)n(-c2cccc(F)c2)n1 [Example 110, 1-((3-tert-butyl-1-(3-fluorophenyl)-1H-pyrazol-5-yl)methyl)-3-(6-(3-hydroxyazetidin-1-yl)pyridin-3-yl)urea]

Ki [nM] | inhibition at 5 µM [%] | SMILES
38 |  | O=C(NCc1cc(C(F)(F)F)nn1-c1cccc(Cl)c1)Nc1ccc(N2CC(O)C2)nc1 [Example 111, 1-((1-(3-chlorophenyl)-3-(trifluoromethyl)-1H-pyrazol-5-yl)methyl)-3-(6-(3-hydroxyazetidin-1-yl)pyridin-3-yl)urea]
48 |  | O=C(NCc1cc(C(F)(F)F)nn1-c1cccc(F)c1)Nc1ccc(N2CC(O)C2)nc1 [Example 112, 1-((1-(3-fluorophenyl)-3-(trifluoromethyl)-1H-pyrazol-5-yl)methyl)-3-(6-(3-hydroxyazetidin-1-yl)pyridin-3-yl)urea]
80 |  | O=C(NCc1cc(C(F)(F)F)nn1-c1ccc(F)c(Cl)c1)Nc1ccc(N2CC(O)C2)nc1 [Example 113, 1-((1-(3-chloro-4-fluorophenyl)-3-(trifluoromethyl)-1H-pyrazol-5-yl)methyl)-3-(6-(3-hydroxyazetidin-1-yl)pyridin-3-yl)urea]
35 |  | Cc1cccc(-n2nc(C(F)(F)F)cc2CNC(=O)Nc2ccc(N3CC(O)C3)nc2)c1 [Example 114, 1-(6-(3-hydroxyazetidin-1-yl)pyridin-3-yl)-3-((1-m-tolyl-3-(trifluoromethyl)-1H-pyrazol-5-yl)methyl)urea]
2 |  | CC(C)c1cccc(-n2nc(C(F)(F)F)cc2CNC(=O)Nc2ccc(N3CC(O)C3)nc2)c1 [Example 115, 1-(6-(3-hydroxyazetidin-1-yl)pyridin-3-yl)-3-((1-(3-isopropylphenyl)-3-(trifluoromethyl)-1H-pyrazol-5-yl)methyl)urea]
18 |  | CC(C)(C)c1cc(CNC(=O)Nc2ccc(N3CC(O)C3)nc2)n(-c2cccc(Cl)c2)n1 [Example 117, 1-((3-tert-butyl-1-(3-chlorophenyl)-1H-pyrazol-5-yl)methyl)-3-(6-(3-hydroxyazetidin-1-yl)pyridin-3-yl)urea]
23 |  | CC(C)(C)c1cc(CNC(=O)Nc2ccc(N3CCCC3)nc2)n(-c2cccc(Cl)c2)n1 [Example 120, 1-((3-tert-butyl-1-(3-chlorophenyl)-1H-pyrazol-5-yl)methyl)-3-(6-(pyrrolidin-1-yl)pyridin-3-yl)urea]
47 |  | O=C(NCc1cc(C(F)(F)F)nn1-c1cccc(Cl)c1)Nc1ccc(N2CCCC2)nc1 [Example 121, 1-((1-(3-chlorophenyl)-3-(trifluoromethyl)-1H-pyrazol-5-yl)methyl)-3-(6-(pyrrolidin-1-yl)pyridin-3-yl)urea]
83 |  | COc1cc(NC(=O)NCc2cc(C(F)(F)F)nn2-c2cccc(Cl)c2)cnc1N1CCCC1 [Example 123, 1-((1-(3-chlorophenyl)-3-(trifluoromethyl)-1H-pyrazol-5-yl)methyl)-3-(5-methoxy-6-(pyrrolidin-1-yl)pyridin-3-yl)urea]
64 |  | O=C(NCc1cc(C(F)(F)F)nn1-c1cccc(Cl)c1)Nc1ccc(N2CC[C@@H](O)C2)nc1 [Example 124, (R)-1-((1-(3-chlorophenyl)-3-(trifluoromethyl)-1H-pyrazol-5-yl)methyl)-3-(6-(3-hydroxypyrrolidin-1-yl)pyridin-3-yl)urea]
64 |  | O=C(NCc1cc(C(F)(F)F)nn1-c1cccc(Cl)c1)Nc1ccc(N2CC[C@H](O)C2)nc1 [Example 125, (S)-1-((1-(3-chlorophenyl)-3-(trifluoromethyl)-1H-pyrazol-5-yl)methyl)-3-(6-(3-hydroxypyrrolidin-1-yl)pyridin-3-yl)urea]
61 |  | CC(C)(C)c1cc(CNC(=O)Nc2ccc(N3CC[C@@H](O)C3)nc2)n(-c2cccc(Cl)c2)n1 [Example 126, (R)-1-((3-tert-butyl-1-(3-chlorophenyl)-1H-pyrazol-5-yl)methyl)-3-(6-(3-hydroxypyrrolidin-1-yl)pyridin-3-yl)urea]
61 |  | CC(C)(C)c1cc(CNC(=O)Nc2ccc(N3CC[C@H](O)C3)nc2)n(-c2cccc(Cl)c2)n1 [Example 127, (S)-1-((3-tert-butyl-1-(3-chlorophenyl)-1H-pyrazol-5-yl)methyl)-3-(6-(3-hydroxypyrrolidin-1-yl)pyridin-3-yl)urea]
13 |  | COc1ccc(C(C)C(=O)NCc2cc(C(F)(F)F)nn2-c2cccc(Cl)c2)cn1 (stereo not shown) [Example 129, N-((1-(3-chlorophenyl)-3-(trifluoromethyl)-1H-pyrazol-5-yl)methyl)-2-(6-methoxypyridin-3-yl)propanamide]
 | 47 | COc1ncc(NC(=O)NCc2cc(C(F)(F)F)nn2-c2cccc(Cl)c2)cn1 [Example 130, 1-((1-(3-chlorophenyl)-3-(trifluoromethyl)-1H-pyrazol-5-yl)methyl)-3-(2-methoxypyrimidin-5-yl)urea]
